Measurements as given in patent US9890166B2, “Imidazopyrrolidine derivatives and their use in the treatment of disease” (NOVARTIS AG, priority 2013, dated 2018).

Tests used:
[1] = test system: THP-1 cells; assay: Cell growth inhibition assay (CellTiter-Glo), THP-1; settings: for GI50: Homo sapiens, THP-1, read-out: THP-1 GI50; for THP-1 TGI: THP-1 cells, total growth inhibition, CellTiter-Glo;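 for all read-outs here: viability read as cellular ATP luminescence after 4 days, 3-fold dilution series from 10 µM, DMSO vehicle-treated cells taken as 100%, cell-free medium wells as −100%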
[2] = test system: MV-4-11 cells; assay: Cell growth inhibition assay (CellTiter-Glo), MV-4-11; settings: for GI50: Homo sapiens, MV4-11, read-out: MV-4-11 GI50; for MV-4-11 TGI: MV-4-11 cells, total growth inhibition, CellTiter-Glo;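 for all read-outs here: cellular ATP luminescence after 4 days, 3-fold dilution series from 10 µM top dose, vehicle (0.1% DMSO) set to 100%, cell-free medium set to −100%, day 0 corrected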
[3] = test system: K-562 cells; assay: Cell growth inhibition assay (CellTiter-Glo), K-562; settings: for GI50: Homo sapiens, K562, read-out: K-562 GI50; for K-562 TGI: K-562 cells, total growth inhibition, CellTiter-Glo;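 for all read-outs here: cellular ATP measured by luminescence after 4 days of exposure, 3-fold dilution series from 10 µM, DMSO vehicle-treated cells define 100%, cell-free medium wells −100%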
[4] = biological target: BRD2 (His-Brd2(60-472)) (Homo sapiens (Human), UniProt P25440); assay: TR-FRET in-vitro binding assay for BRD2; settings: single determination or n ≧ 2 independent determinations, read-out: Biochemical IC50 BRD2
How it was run: (§1)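 His-tagged BRD2, BRD3 and BRD4 fragments tested by TR-FRET at 8 compound concentrations, with DMSO stocks at 10 mM. Read on EnVision after 35 min incubation at 30° C.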

[5] = biological target: BRD3 (His-Brd3(20-477)) (Homo sapiens (Human), UniProt Q15059); assay: TR-FRET in-vitro binding assay for BRD3; settings: single determination or n ≧ 2 independent determinations, read-out: Biochemical IC50 BRD3
How it was run: as §1

[6] = biological target: BRD4 (His-Brd4(44-477)) (Homo sapiens (Human), UniProt O60885); assay: TR-FRET in-vitro binding assay for BRD4; settings: single determination or n ≧ 2 independent determinations, read-out: Biochemical IC50 BRD4
How it was run: as §1

[7] = biological target: CREBBP bromodomain (His-CREBBP(1081-1197)) (Homo sapiens (Human), UniProt Q92793); assay: AlphaScreen in-vitro binding assay for CREBBP; settings: single determination or n ≧ 2 independent determinations, read-out: Biochemical IC50 CREBBP
How it was run: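 Detection used nickel-chelate acceptor plus streptavidin donor AlphaScreen beads, 1 h room temperature. Percent inhibition fitted by non-linear regression to IC50.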

Chain of BRD3 (His-Brd3(20-477)) (Q15059 20-477): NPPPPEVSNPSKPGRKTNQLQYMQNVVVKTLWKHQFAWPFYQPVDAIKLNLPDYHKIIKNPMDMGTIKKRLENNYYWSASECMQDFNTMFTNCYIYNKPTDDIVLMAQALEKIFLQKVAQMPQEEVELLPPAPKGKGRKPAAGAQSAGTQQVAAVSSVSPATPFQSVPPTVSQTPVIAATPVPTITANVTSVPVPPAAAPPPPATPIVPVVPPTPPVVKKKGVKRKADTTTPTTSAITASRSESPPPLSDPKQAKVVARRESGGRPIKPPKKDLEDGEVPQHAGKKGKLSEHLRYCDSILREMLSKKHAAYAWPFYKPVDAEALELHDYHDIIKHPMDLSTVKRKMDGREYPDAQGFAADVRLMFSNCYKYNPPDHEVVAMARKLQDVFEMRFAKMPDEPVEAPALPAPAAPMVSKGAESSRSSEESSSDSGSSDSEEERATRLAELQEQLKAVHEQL
Chain of CREBBP bromodomain (His-CREBBP(1081-1197)) (Q92793 1081-1197): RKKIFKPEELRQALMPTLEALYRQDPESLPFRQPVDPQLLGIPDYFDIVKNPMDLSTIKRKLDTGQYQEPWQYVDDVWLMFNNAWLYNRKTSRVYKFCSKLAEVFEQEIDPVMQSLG
Chain of BRD2 (His-Brd2(60-472)) (P25440 60-472): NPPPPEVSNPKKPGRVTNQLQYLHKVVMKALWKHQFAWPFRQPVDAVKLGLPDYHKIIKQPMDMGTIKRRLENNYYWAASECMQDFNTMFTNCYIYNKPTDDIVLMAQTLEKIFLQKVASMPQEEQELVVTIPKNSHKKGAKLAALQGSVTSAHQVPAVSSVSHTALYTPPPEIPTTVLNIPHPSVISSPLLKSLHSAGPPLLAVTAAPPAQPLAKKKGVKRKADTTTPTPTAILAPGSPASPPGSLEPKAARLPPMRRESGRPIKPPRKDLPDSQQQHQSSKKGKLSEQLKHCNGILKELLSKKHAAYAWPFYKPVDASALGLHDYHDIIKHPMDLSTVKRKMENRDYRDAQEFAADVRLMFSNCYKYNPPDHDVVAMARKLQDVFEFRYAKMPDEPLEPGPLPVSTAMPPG

Structure (SMILES) | GI50 [1] [nM] | GI50 [2] [nM] | GI50 [3] [nM] | IC50 [4] [nM] | IC50 [5] [nM] | IC50 [6] [nM] | IC50 [7] [nM] | THP-1 TGI [1] [nM] | MV-4-11 TGI [2] [nM] | K-562 TGI [3] [nM]
COc1ncccc1-c1nc2c([nH]1)[C@@H](c1ccc(Cl)cc1)N(c1cc(C)c(=O)n(C)c1)C2=O [Example 156, (R)-6-(4-chlorophenyl)-5-(1,5-dimethyl-6-oxo-1,6-dihydropyridin-3-yl)-2-(2-methoxypyridin-3-yl)-5,6-dihydropyrrolo[3,4-d]imidazol-4(1H)-one] | 43.4 | 25.4 | 122 | 32 | 29.5 | 25 | 260 | 99 | 51.35 | >10000
COc1ncc(-c2nc3c(n2C(C)C)[C@@H](c2ccc(Cl)cc2)N(c2cc(C)c4nnc(C(F)F)n4c2)C3=O)c(OC)n1 [Example 159, (R)-6-(4-chlorophenyl)-5-(3-(difluoromethyl)-8-methyl-[1,2,4]triazolo[4,3-a]pyridin-6-yl)-2-(2,4-dimethoxypyrimidin-5-yl)-1-isopropyl-5,6-dihydropyrrolo[3,4-d]imidazol-4(1H)-one] | 12.1 | 5.86 | 40.5 | 16 | 12 | < 11 | 12600 | 31.5 | 15.6 | >10000
Cc1cc(N2C(=O)c3nc(C4=CCOCC4)[nH]c3[C@H]2c2ccc(Cl)cc2)cn2c(C)nnc12 [Example 167, (R)-6-(4-chlorophenyl)-2-(3,6-dihydro-2H-pyran-4-yl)-5-(3,8-dimethyl-[1,2,4]triazolo[4,3-a]pyridin-6-yl)-5,6-dihydropyrrolo[3,4-d]imidazol-4(1H)-one] | 103 | 33.6 | 537 | 63 | 53 | 35 | 1650 | 188.5 | 57.85 | >10000
Cc1cc(N2C(=O)c3nc(C4CCN(C)CC4)n(C(C)C)c3C2c2ccc(Cl)cc2)nn2c(C)nnc12 (stereo not shown) [Example 169, 6-(4-chlorophenyl)-5-(3,8-dimethyl-[1,2,4]triazolo[4,3-b]pyridazin-6-yl)-1-isopropyl-2-(1-methylpiperidin-4-yl)-5,6-dihydropyrrolo[3,4-d]imidazol-4(1H)-one] | 11.5 | 1.94 | 55.9 | 25 | 33 | 19 | > 37000 | 32.95 | 5.325 | >10000

Continued by falling GI50 [1], values first:

GI50 [1] [nM] | GI50 [2] [nM] | GI50 [3] [nM] | IC50 [4] [nM] | IC50 [5] [nM] | IC50 [6] [nM] | IC50 [7] [nM] | Structure (SMILES) | THP-1 TGI [1] [nM] | MV-4-11 TGI [2] [nM] | K-562 TGI [3] [nM]
6.09 | 5.99 | 75.2 | 30 | 16 | 15 | > 37000 | Cc1cc(N2C(=O)c3nc(C4=CCOCC4)n(C(C)C)c3C2c2ccc(Cl)cc2)nn2c(C(F)F)nnc12 (stereo not shown) [Example 161, 6-(4-chlorophenyl)-5-(3-(difluoromethyl)-8-methyl-[1,2,4]triazolo[4,3-b]pyridazin-6-yl)-2-(3,6-dihydro-2H-pyran-4-yl)-1-isopropyl-5,6-dihydropyrrolo[3,4-d]imidazol-4(1H)-one] | 13.65 | 13.65 | >10000
5.65 | 2.99 | 30.8 | 17 | < 11 | < 11 | > 37000 | COc1ncccc1-c1nc2c(n1C(C)C)[C@@H](c1ccc(Cl)cc1)N(c1cc(C)c3nnc(C(F)F)n3n1)C2=O [Example 168, (R)-6-(4-chlorophenyl)-5-(3-(difluoromethyl)-8-methyl-[1,2,4]triazolo[4,3-b]pyridazin-6-yl)-1-isopropyl-2-(2-methoxypyridin-3-yl)-5,6-dihydropyrrolo[3,4-d]imidazol-4(1H)-one] | 18.9 | 7.7 | >10000
2 | 1.64 | 8.73 | 16 | < 11 | < 11 | > 37000 | COc1ncccc1-c1nc2c(n1C(C)C)[C@@H](c1ccc(Cl)cc1)N(c1cc(C)c3nnn(C)c3n1)C2=O [Example 158, (R)-6-(4-chlorophenyl)-5-(3,7-dimethyl-3H-[1,2,3]triazolo[4,5-b]pyridin-5-yl)-1-isopropyl-2-(2-methoxypyridin-3-yl)-5,6-dihydropyrrolo[3,4-d]imidazol-4(1H)-one] | 5.065 | 3.29 | >10000
